Reference: US20040166160A1, “Methods and dosage forms with modified viscosity layers” (priority 2003, published 2004)
Where a name gives a salt, the structure may show the parent alone. Values belong to the compound of their own block, whether it stands above or below them.

What was measured:
[1] = cited from earlier work
[2] = FIG. 6
Source text: FIG. 6 illustrates blood plasma concentrations at various times achieved through various means of delivery. This figure illustrates the time necessary to achieve a particular blood plasma concentration.

[3] = in vivo; cited from earlier work
[4] = in vivo; cited from earlier work; remark: listed apart in the source

Compound: CN(C)CCC=C1c2ccccc2C=Cc2ccccc21 [Cyclobenzaprine hydrochloride, cyclobenzaprine hydrochloride]
solubility in alcohol ([1]; alcohol): freely soluble
solubility in hydrocarbon solvents ([1]; hydrocarbon solvents): insoluble
solubility in isopropanol ([1]; isopropanol): sparingly soluble
solubility in water ([1]; water): freely soluble

colonic absorption [2]: colonic absorption
Compound: CN(C)CCC=C1c2ccccc2C=Cc2ccccc21 [cyclobenzaprine]
half-life [3]: 24 to 72 h
reported side effects [4]: sedation and dry mouth
